Source: the NIST ThermoML archive (doi:10.1016/j.jct.2015.07.028)
Numbers after ± are expanded uncertainties.

Test: molar heat capacity at saturation pressure
Details: Liquid, Small (less than 1 g) adiabatic calorimetry

C=CC(C)(C)O [2-methyl-3-buten-2-ol]
Details	molar heat capacity [J/K/mol]
246.77 K	194.9 ± 1
247.82 K	195.6 ± 1
247.97 K	195.7 ± 1
248.89 K	196.3 ± 1.1
249.15 K	196.4 ± 1.1
250 K	197.1 ± 1.1
250.07 K	197.1 ± 1.1
250.13 K	197.2 ± 1.1
250.55 K	197.4 ± 1.1
251.14 K	197.8 ± 1.1
251.38 K	197.9 ± 1.1
252.31 K	198.7 ± 1.1
252.44 K	198.8 ± 1.1
252.58 K	198.8 ± 1.1
253.39 K	199.4 ± 1.1
253.62 K	199.5 ± 1.1
254.55 K	200.3 ± 1.1
254.63 K	200.3 ± 1.1
254.88 K	200.5 ± 1.1
255.63 K	201 ± 1.1
255.85 K	201.2 ± 1.1
256.68 K	201.8 ± 1.1
256.78 K	201.9 ± 1.1
257.32 K	202.4 ± 1.1
257.86 K	202.7 ± 1.1
258.07 K	202.9 ± 1.1
258.73 K	203.4 ± 1.1
259 K	203.6 ± 1.1
259.76 K	204.2 ± 1.1
260 K	204.4 ± 1.1
260.78 K	205 ± 1.1
262.18 K	206.2 ± 1.1
262.83 K	206.7 ± 1.1
264.6 K	208.1 ± 1.1
264.88 K	208.4 ± 1.1
266.93 K	210 ± 1.1
267.01 K	210.2 ± 1.1
268.98 K	211.8 ± 1.1
269.4 K	212.2 ± 1.1
270 K	212.7 ± 1.2
271.03 K	213.5 ± 1.1
271.79 K	214.3 ± 1.1
273.08 K	215.2 ± 1.1
273.15 K	215.4 ± 1.2
274.18 K	216.2 ± 1.1
275.13 K	217.1 ± 1.2
276.55 K	218.4 ± 1.2
277.18 K	218.9 ± 1.2
278.91 K	220.5 ± 1.2
279.23 K	220.7 ± 1.2
280 K	221.4 ± 1.2
281.26 K	222.6 ± 1.2
281.28 K	222.6 ± 1.2
283.33 K	224.4 ± 1.2
283.61 K	224.6 ± 1.2
285.38 K	226.2 ± 1.2
285.94 K	226.8 ± 1.2
287.43 K	228 ± 1.2
288.26 K	228.9 ± 1.2
289.48 K	229.9 ± 1.2
290 K	230.3 ± 1.2
290.57 K	230.9 ± 1.2
291.53 K	231.6 ± 1.2
292.87 K	232.8 ± 1.2
293.58 K	233.4 ± 1.2
295.16 K	234.7 ± 1.2
295.63 K	235.2 ± 1.2
297.44 K	236.8 ± 1.2
297.69 K	236.9 ± 1.2
298.15 K	237.4 ± 1.2
299.72 K	238.7 ± 1.3
299.74 K	238.7 ± 1.3
300 K	238.9 ± 1.3
301.79 K	240.4 ± 1.3
303.84 K	242.1 ± 1.3
305.9 K	243.7 ± 1.3
307.95 K	245.3 ± 1.3
310 K	246.9 ± 1.3
310.01 K	246.9 ± 1.3
312.06 K	248.3 ± 1.3
314.12 K	249.9 ± 1.3
316.18 K	251.3 ± 1.3
318.23 K	252.8 ± 1.3
320 K	253.9 ± 1.3
320.29 K	254.1 ± 1.3
322.35 K	255.4 ± 1.3
324.41 K	256.7 ± 1.3
326.47 K	258 ± 1.4
328.53 K	259.1 ± 1.4
330 K	259.9 ± 1.3
330.59 K	260.2 ± 1.4
332.65 K	261.4 ± 1.4
334.71 K	262.3 ± 1.4
336.78 K	263.3 ± 1.4
338.84 K	264.2 ± 1.4
340 K	264.7 ± 1.4
340.9 K	265 ± 1.4
342.97 K	265.8 ± 1.4
345.03 K	266.6 ± 1.4
347.09 K	267.3 ± 1.4
349.16 K	268 ± 1.4
350 K	268.3 ± 1.4
351.22 K	268.7 ± 1.4
353.29 K	269.1 ± 1.4
355.35 K	269.8 ± 1.4
357.42 K	270.4 ± 1.4
359.48 K	270.9 ± 1.4
360 K	270.9 ± 1.4
361.55 K	271.3 ± 1.4
363.61 K	271.6 ± 1.4
365.68 K	272.1 ± 1.4
367.74 K	272.4 ± 1.4
370 K	272.9 ± 1.4
